Patent publication US11229203B2, “Method of formulation of combined microbe and agricultural chemistry, microbe-derivative composition, and use of same” (priority 2017, dated 2022)

Tests used:
plant = test: Plant growth and productivity with 1-octen-3-ol in aerial solution or as seed treatment; type: in vivo; conditions: very low concentrations in aerial solution; duplicated by seed treatments at low concentrations
Text: Applicants have begun evaluating the triggering molecules released in the rhizosphere since applicants expected that they might have both commercial and basic scientific uses. The expectation was they would have beneficial effects upon plants.

seeds = test: Field trials and large-scale laboratory tests of seed treatments; type: in vivo; conditions: seeds treated with formulations containing only 0.7 μl/seed
Text: Applicants expected that this compound as well as other microbial metabolites would have transitory but beneficial effects on plant growth, resistance to stresses and other advantages. However, as field trials were developed and conducted on seed treatments with this compound in field and large-scale laboratory tests, the effects were discovered to be neither transitory nor small.

C=CC(O)CCCCC (centres unmarked) [Trichoderma 1-octen-3-ol, 1-octen-3-ol]
Effect on plant growth and productivity (plant): enhances plant growth and productivity
Duration of effects after seed treatment (seeds): season long effects were observed
